Measurements as given in US10501479B2, “Benzenesulfonyl-asymmetric ureas and medical uses thereof” (HELSINN HEALTHCARE SA, priority 2016, dated 2019).

Molecular target: T1, GHSR-1a (HEK293/GHSR1a cell line) (Homo sapiens, UniProt Q92847)
T1 construct: expressed in transfected cells; host or cells: HEK293/GHSR1a cell line
Assay: Ghrelin antagonist potency (IC50) with calcium FLIPR assay, ghrelin 10 nM
Type: cell-based
Details: ghrelin antagonist potency, read-out: IC50 (Activity)
Description: Evaluation of Ghrelin Agonist (EC50) and Antagonist Potency (IC50) with Calcium FLIPR Assay:
The intracellular calcium assay was carried out in a 384-well format FLIPR™ (Molecular Device) HEK293/GHSR1a cell line. Cells were seeded 24 hr prior to the experiments at an optimal density per well. Preincubation with selected calcium dye lasted for 30-60 min at room temperature or 37° C. Test compounds, dissolved in DMSO, were added at the appropriate time and incubated for 15 min followed by the addition of ghrelin with FlexStation or FLIPR. Relative fluorescence was monitored by the FLIPR™ Molecular Device. EC50 and IC50 values were estimated from dose-response data using GraphPad Prism software. To check for GHSR-1a agonism, the compound was added at t=20 sec. and the calcium response was followed for 2 minutes. To check for GHSR-1a antagonism, the compound and Ghrelin (10 nM) were added to the cells at t=20 sec. and the calcium response was measured for 2 minutes. The potency of the antagonist was calculated by its ability to reduce the ghrelin response. Dose-response curves were made for relevant antagonists.

T1 sequence (Q92847 whole entry): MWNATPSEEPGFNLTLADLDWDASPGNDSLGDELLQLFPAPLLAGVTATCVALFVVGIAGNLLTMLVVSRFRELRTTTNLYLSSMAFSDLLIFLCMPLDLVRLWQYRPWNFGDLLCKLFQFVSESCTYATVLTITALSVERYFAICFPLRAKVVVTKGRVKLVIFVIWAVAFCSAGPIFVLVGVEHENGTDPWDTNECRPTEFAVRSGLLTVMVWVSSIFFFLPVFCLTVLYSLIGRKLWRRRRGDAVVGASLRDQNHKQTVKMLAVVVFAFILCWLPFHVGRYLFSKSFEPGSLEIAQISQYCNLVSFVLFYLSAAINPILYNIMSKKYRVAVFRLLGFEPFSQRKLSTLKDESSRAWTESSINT

Row | SMILES | IC50 [µM]
1 | COc1ccc([C@H](C)NC(=O)Nc2ccc(S(=O)(=O)Nc3ccccc3)cc2)c(Cl)c1Cl [H0950, (S)-4-(3-(1-(2,3-dichloro-4-methoxyphenyl)ethyl)ureido)-N-phenylbenzenesulfonamide] | 20.8
2 | COc1ccc([C@H](C)NC(=O)Nc2ccc(S(=O)(=O)Nc3ccc(C)cc3)cc2)c(Cl)c1Cl [H0953, (S)-4-(3-(1-(2,3-dichloro-4-methoxyphenyl)ethyl)ureido)-N-(p-tolyl)benzenesulfonamide] | > 30
3 | CC(=O)N(C)S(=O)(=O)c1ccc(NC(=O)N[C@@H](C)c2ccc(-c3cnccn3)c(Cl)c2Cl)cc1 [H0954, (S)-N-((4-(3-(1-(2,3-dichloro-4-(pyrazin-2-yl)phenyl)ethyl)ureido)phenyl)sulfonyl)-N-methylacetamide] | > 30
4 | Cc1ccc(CS(=O)(=O)c2ccc(NC(=O)N[C@@H](C)c3ccc(-c4cnccn4)c(Cl)c3Cl)cc2)cc1 [H0963, (S)-1-(1-(2,3-dichloro-4-(pyrazin-2-yl)phenyl)ethyl)-3-(4-((4-methylbenzyl)sulfonyl)phenyl)urea] | > 30
5 | C[C@H](NC(=O)Nc1ccc(S(=O)(=O)Nc2ccccc2)cc1)c1cccc(Cl)c1Cl [H0965, (S)-4-(3-(1-(2,3-dichlorophenyl)ethyl)ureido)-N-phenylbenzenesulfonamide] | > 30
6 | COc1ccc([C@H](C)NC(=O)Nc2ccc(S(=O)(=O)Cc3ccc4c(c3)CCN(S(C)(=O)=O)C4)cc2)c(Cl)c1Cl [H1026, (S)-1-(1-(2,3-dichloro-4-methoxyphenyl)ethyl)-3-(4-(((2-(methylsulfonyl)-1,2,3,4-tetrahydroisoquinolin-6-yl)methyl)sulfonyl)phenyl)urea] | 14.9
7 | O=C(NCc1cccc(Cl)c1Cl)Nc1ccc(S(=O)(=O)Cc2ccc3c(c2)CCN3)cc1 [H1048, 1-(2,3-dichlorobenzyl)-3-(4-((indolin-5-ylmethyl)sulfonyl)phenyl)urea] | 16.8
8 | COC(=O)c1ccc(CS(=O)(=O)c2ccc(NC(=O)N[C@@H](C)c3cccc(Cl)c3Cl)cc2)cc1 [H1058, methyl (S)-4-(((4-(3-(1-(2,3-dichlorophenyl)ethyl)ureido)phenyl)sulfonyl)methyl)benzoate] | 20
9 | C[C@H](NC(=O)Nc1ccc(S(=O)(=O)Cc2ccc(C(=O)O)cc2)cc1)c1cccc(Cl)c1Cl [H1059] | > 30
10 | C[C@H](NC(=O)Nc1ccc(S(=O)(=O)Cc2ccc(C(N)=O)cc2)cc1)c1cccc(Cl)c1Cl [H1073, (S)-4-(((4-(3-(1-(2,3-dichlorophenyl)ethyl)ureido)phenyl)sulfonyl)methyl)benzamide] | > 30
11 | COc1cccc(CS(=O)(=O)c2ccc(NC(=O)N[C@@H](C)c3cccc(Cl)c3Cl)cc2)c1 [H1082, (S)-1-(1-(2,3-dichlorophenyl)ethyl)-3-(4-((3-methoxybenzyl)sulfonyl)phenyl)urea] | > 30
12 | C[C@H](NC(=O)Nc1ccc(S(=O)(=O)CCN2CCOCC2)cc1)c1cccc(Cl)c1Cl [H1096, (S)-1-(1-(2,3-dichlorophenyl)ethyl)-3-(4-((2-morpholinoethyl)sulfonyl)phenyl)urea] | ≥ 30
13 | C[C@H](NC(=O)Nc1ccc(S(=O)(=O)Cc2ccc(C#N)cc2)cc1)c1cccc(Cl)c1Cl [H1101, (S)-1-(4-((4-cyanobenzyl)sulfonyl)phenyl)-3-(1-(2,3-dichlorophenyl)ethyl)urea] | ≥ 30
14 | O=C(NCc1ccccc1)Nc1ccc(S(=O)(=O)Cc2ccc(CO)cc2)cc1 [H1131, 1-benzyl-3-(4-((4-(hydroxymethyl)benzyl)sulfonyl)phenyl)urea] | ≥ 30

Stronger by IC50, values ahead:

Row | IC50 [µM] | SMILES
15 | 2.04 | C[C@H](NC(=O)N(C)c1ccc(S(=O)(=O)Nc2ccc(CC(C)(C)N)cc2)cc1)c1ccc(-c2cnccn2)c(Cl)c1Cl [H0942, (S)-N-(4-(2-amino-2-methylpropyl)phenyl)-4-(3-(1-(2,3-dichloro-4-(pyrazin-2-yl)phenyl)ethyl)-1-methylureido) benzenesulfonamide]
16 | 6.58 | Cc1ccc(NS(=O)(=O)c2ccc(NC(=O)N[C@@H](C)c3cccc(Cl)c3Cl)cc2)cc1 [H0966, (S)-4-(3-(1-(2,3-dichlorophenyl)ethyl)ureido)-N-(p-tolyl)benzenesulfonamide]
17 | 0.0095 | COc1ccc(C(C)(C)NC(=O)Nc2ccc(S(=O)(=O)Nc3ccc(CC(C)(C)N)cc3)cc2)c(Cl)c1Cl [H0975, N-(4-(2-amino-2-methylpropyl)phenyl)-4-(3-(2-(2,3-dichloro-4-methoxyphenyl)propan-2-yl)ureido)benzenesulfonamide]
18 | 0.0095 | CN(C)C(C)(C)Cc1ccc(CS(=O)(=O)c2ccc(NC(=O)NCc3cccc(Cl)c3Cl)cc2)cc1 [H0981, 1-(2,3-dichlorobenzyl)-3-(4-((4-(2-(dimethylamino)-2-methylpropyl)benzyl)sulfonyl)phenyl)urea]
19 | 0.823 | COc1ccc([C@H](C)NC(=O)Nc2ccc(S(=O)(=O)Nc3ccc4[nH]ccc4c3)cc2)c(Cl)c1Cl [H0990, (S)-4-(3-(1-(2,3-dichloro-4-methoxyphenyl)ethyl)ureido)-N-(1H-indol-5-yl) benzenesulfonamide]
20 | 2.02 | C[C@H](NC(=O)Nc1ccc(S(=O)(=O)Nc2ccc3c(c2)CCCN3)cc1)c1cccc(Cl)c1Cl [H1003, (S)-4-(3-(1-(2,3-dichlorophenyl)ethyl)ureido)-N-(1,2,3,4-tetrahydroquinolin-6-yl)benzenesulfonamide]
21 | 6.38 | COc1ccc([C@H](C)NC(=O)Nc2ccc(S(=O)(=O)Nc3ccc4c(c3)CCCN4)cc2)c(Cl)c1Cl [H1008, (S)-4-(3-(1-(2,3-dichloro-4-methoxyphenyl)ethyl)ureido)-N-(1,2,3,4-tetrahydroquinolin-6-yl)benzenesulfonamide]
22 | 3.02 | COc1ccc([C@H](C)NC(=O)Nc2ccc(S(=O)(=O)Nc3ccc4c(c3)CCN(S(C)(=O)=O)C4)cc2)c(Cl)c1Cl [H1033, (S)-4-(3-(1-(2,3-dichloro-4-methoxyphenyl)ethyl)ureido)-N-(2-(methylsulfonyl)-1,2,3,4-tetrahydroisoquinolin-6-yl)benzenesulfonamide]
23 | 2.74 | C[C@H](NC(=O)Nc1ccc(S(=O)(=O)Cc2ccc3c(c2)NCC3)cc1)c1cccc(Cl)c1Cl [H1045, (S)-1-(1-(2,3-dichlorophenyl)ethyl)-3-(4-((indolin-6-ylmethyl)sulfonyl)phenyl)urea]
24 | 1.99 | O=C(NCc1cccc(Cl)c1Cl)Nc1ccc(S(=O)(=O)Cc2ccc3c(c2)NCC3)cc1 [H1046, 1-(2,3-dichlorobenzyl)-3-(4-((indolin-6-ylmethyl)sulfonyl)phenyl)urea]
25 | 0.467 | C[C@H](NC(=O)Nc1ccc(S(=O)(=O)NCCC2CCNCC2)cc1)c1cccc(Cl)c1Cl [H1052, (S)-4-(3-(1-(2,3-dichlorophenyl)ethyl)ureido)-N-(2-(piperidin-4-yl)ethyl)benzenesulfonamide]
26 | 2.87 | COC(=O)c1ccc(NS(=O)(=O)c2ccc(NC(=O)N[C@@H](C)c3cccc(Cl)c3Cl)cc2)cc1 [H1061, methyl (S)-4-((4-(3-(1-(2,3-dichlorophenyl)ethyl)ureido)phenyl)sulfonamido)benzoate]
27 | 5.29 | C[C@H](NC(=O)Nc1ccc(S(=O)(=O)Cc2ccc(-c3cccnc3)cc2)cc1)c1cccc(Cl)c1Cl [H1070, (S)-1-(1-(2,3-dichlorophenyl)ethyl)-3-(4-((4-(pyridin-3-yl)benzyl)sulfonyl)phenyl)urea]
28 | 3.02 | COC(=O)Cc1ccc(NS(=O)(=O)c2ccc(NC(=O)N[C@@H](C)c3cccc(Cl)c3Cl)cc2)cc1 [H1075, methyl (S)-2-(4-((4-(3-(1-(2,3-dichlorophenyl)ethyl)ureido)phenyl)sulfonamido)phenyl)acetate]
29 | 3.58 | C[C@H](NC(=O)Nc1ccc(S(=O)(=O)CC2CC2)cc1)c1cccc(Cl)c1Cl [H1078, (S)-1-(4-((cyclopropylmethyl)sulfonyl)phenyl)-3-(1-(2,3-dichlorophenyl)ethyl)urea]
30 | 1.24 | C[C@H](NC(=O)Nc1ccc(S(=O)(=O)C(C)(C)c2ccc3c(c2)CCNC3)cc1)c1cccc(Cl)c1Cl [H1081, (S)-1-(1-(2,3-dichlorophenyl)ethyl)-3-(4-((2-(1,2,3,4-tetrahydroisoquinolin-6-yl)propan-2-yl)sulfonyl)phenyl)urea]
31 | 3.5 | C[C@H](NC(=O)Nc1ccc(S(=O)(=O)Cc2cccc(O)c2)cc1)c1cccc(Cl)c1Cl [H1084, (S)-1-(1-(2,3-dichlorophenyl)ethyl)-3-(4-((3-hydroxybenzyl)sulfonyl)phenyl)urea]
32 | 8.18 | COC(=O)c1cccc(CS(=O)(=O)c2ccc(NC(=O)N[C@@H](C)c3cccc(Cl)c3Cl)cc2)c1 [H1087, methyl (S)-3-(((4-(3-(1-(2,3-dichlorophenyl)ethyl)ureido)phenyl)sulfonyl)methyl)benzoate]
33 | 1.43 | C[C@H](NC(=O)Nc1ccc(S(=O)(=O)Nc2ccc(CCO)cc2)cc1)c1ccccc1Cl [H1095, (S)-4-(3-(1-(2-chlorophenyl)ethyl)ureido)-N-(4-(2-hydroxyethyl)phenyl) benzenesulfonamide]
34 | 0.95 | C[C@H](NC(=O)Nc1ccc(S(=O)(=O)Nc2ccc(-c3ncc[nH]3)cc2)cc1)c1cccc(Cl)c1Cl [H1110, (S)-N-(4-(1H-imidazol-2-yl)phenyl)-4-(3-(1-(2,3-dichlorophenyl)ethyl)ureido) benzenesulfonamide]
35 | 0.183 | C[C@H](NC(=O)Nc1ccc(S(=O)(=O)Nc2ccc(N)nc2)cc1)c1cccc(Cl)c1Cl [H1126, (S)-N-(6-aminopyridin-3-yl)-4-(3-(1-(2,3-dichlorophenyl)ethyl)ureido) benzenesulfonamide]
